system: bicistronic HCV replicon (replicon RNA, GenBank Accession No. AJ242654); test: HCV Replicon Assay; type: cell-based; settings: Hepatitis C virus, 72 h, read-out: Replicon IC50

Compound | IC50 [nM]
Cc1ccc2c(C#N)c(-c3ccc(S(=O)(=O)N[C@H](C)C(F)(F)F)cn3)n(-c3ccccn3)c2c1 [compound 671, 6-[3-cyano-6-methyl-1-(pyridin-2-yl)-1H-indol-2-yl]-N-[(2R)-1,1,1-trifluoropropan-2-yl]pyridine-3-sulfonamide] | < 500
CCc1cc2c(cc1F)c(C(=O)O)c(-c1cnc(NS(=O)(=O)C(C)(C)C)nc1)n2C1CCCCC1 [compound 1029, 2-{2-[(tert-butylsulfonyl)amino]pyrimidin-5-yl}-1-cyclohexyl-6-ethyl-5-fluoro-1H-indole-3-carboxylic acid] | 2000 to 5000
Cc1cc2c(cc1F)c(C#N)c(-c1cc(C)c(S(=O)(=O)N[C@@H](C)C(F)(F)F)cn1)n2-c1ncccn1 [compound 853, 6-[3-cyano-5-fluoro-6-methyl-1-(pyrimidin-2-yl)-1H-indol-2-yl]-4-methyl-N-[(2S)-1,1,1-trifluoropropan-2-yl]pyridine-3-sulfonamide] | < 500
Cc1cc2c(C#N)c(-c3ccc(S(=O)(=O)N[C@H](C)C(F)(F)F)cn3)n(C3CCC3)c2cc1OC(F)F [compound 665, 6-[3-cyano-1-cyclobutyl-6-(difluoromethoxy)-5-methyl-1H-indol-2-yl]-N-[(2R)-1,1,1-trifluoropropan-2-yl]pyridine-3-sulfonamide] | 500 to 2000
C[C@H](NS(=O)(=O)c1ccc(-c2c(C#N)c3ccc(OC(F)(F)F)cc3n2C2CCCCC2)nc1)C(F)(F)F [compound 459, 6-[3-cyano-1-cyclohexyl-6-(trifluoromethoxy)-1H-indol-2-yl]-N-[(2S)-1,1,1-trifluoropropan-2-yl]pyridine-3-sulfonamide] | < 500
Cc1cc2c(cc1F)cc(-c1ccc(S(=O)(=O)N[C@@H](C)C(F)(F)F)cn1)n2-c1ccoc1 [compound 988, 6-[5-fluoro-1-(furan-3-yl)-6-methyl-1H-indol-2-yl]-N-[(2S)-1,1,1-trifluoropropan-2-yl]pyridine-3-sulfonamide] | < 500
C[C@@H](NS(=O)(=O)c1ccc(-c2c(C#N)c3cc(Cl)ccc3n2C2CCCC2)nc1)C(F)(F)F [compound 224, 6-(5-chloro-3-cyano-1-cyclopentyl-1H-indol-2-yl)-N-[(2R)-1,1,1-trifluoropropan-2-yl]pyridine-3-sulfonamide] | < 500
Cc1cc2c(cc1F)cc(-c1ccc(S(=O)(=O)N[C@@H](C)C(F)(F)F)cn1)n2-c1ccsc1 [compound 987, 6-[5-fluoro-6-methyl-1-(thiophen-3-yl)-1H-indol-2-yl]-N-[(2S)-1,1,1-trifluoropropan-2-yl]pyridine-3-sulfonamide] | < 500
N#Cc1c(-c2ccc(S(=O)(=O)NC(CF)CF)cn2)n(C2CCC2)c2cc(C3CCC3)ccc12 [compound 342, 6-(3-cyano-1,6-dicyclobutyl-1H-indol-2-yl)-N-(1,3-difluoropropan-2-yl)pyridine-3-sulfonamide] | 500 to 2000
C[C@@H](NS(=O)(=O)c1ccc(-c2c(C#N)c3cc(Cl)ccc3n2C2CCC2)nc1)C(F)(F)F [compound 316, 6-(5-chloro-3-cyano-1-cyclobutyl-1H-indol-2-yl)-N-[(2R)-1,1,1-trifluoropropan-2-yl]pyridine-3-sulfonamide] | < 500
COC(=O)c1c(-c2ccc(S(=O)(=O)N[C@@H](C)C(F)(F)F)cn2)n(C2CCCC2)c2cc(C)c(F)cc12 [compound 756, (S)-methyl 1-cyclopentyl-5-fluoro-6-methyl-2-(5-(N-(1,1,1-trifluoropropan-2-yl)sulfamoyl)pyridin-2-yl)-1H-indole-3-carboxylate] | < 500
Cc1cc2c(cc1F)c(C(N)=O)c(-c1ccc(S(=O)(=O)NC(C)(C)C)cn1)n2C1CCCC1 [compound 683, 2-[5-(tert-butylsulfamoyl)pyridin-2-yl]-1-cyclopentyl-5-fluoro-6-methyl-1H-indole-3-carboxamide] | < 500
Cc1ccnc(-n2c(-c3ccc(S(=O)(=O)N[C@@H](C)C(F)(F)F)cn3)c(C#N)c3cc(F)c(C)cc32)n1 [compound 873, 6-[3-cyano-5-fluoro-6-methyl-1-(4-methylpyrimidin-2-yl)-1H-indol-2-yl]-N-[(2S)-1,1,1-trifluoropropan-2-yl]pyridine-3-sulfonamide] | < 500
Cc1cc2c(cc1F)c(C#N)c(-c1ccc(S(=O)(=O)N[C@@H](C)C(F)(F)F)cn1)n2C1CCOCC1 [compound 751, 6-[3-cyano-5-fluoro-6-methyl-1-(tetrahydro-2H-pyran-4-yl)-1H-indol-2-yl]-N-[(2S)-1,1,1-trifluoropropan-2-yl]pyridine-3-sulfonamide] | < 500
Cc1cc2c(cc1F)cc(-c1ccc(S(=O)(=O)N[C@@H](C)C(F)(F)F)cn1)n2-c1ccc(C#N)o1 [compound 1060, 6-[1-(5-cyanofuran-2-yl)-5-fluoro-6-methyl-1H-indol-2-yl]-N-[(2S)-1,1,1-trifluoropropan-2-yl]pyridine-3-sulfonamide] | 2000 to 5000
Cc1cc2c(cc1F)c(C(=O)O)c(-c1ncc(S(=O)(=O)N[C@@H](C)C(F)(F)F)cn1)n2C1CCC1 [compound 775, 1-cyclobutyl-5-fluoro-6-methyl-2-(5-{[(2S)-1,1,1-trifluoropropan-2-yl]sulfamoyl}pyrimidin-2-yl)-1H-indole-3-carboxylic acid] | 500 to 2000
N#Cc1c(-c2ncc(S(=O)(=O)NC(CF)CF)cn2)n(C2CCC2)c2cc(C3CC3)c(F)cc12 [compound 145, 2-(3-cyano-1-cyclobutyl-6-cyclopropyl-5-fluoro-1H-indol-2-yl)-N-(1,3-difluoropropan-2-yl)pyrimidine-5-sulfonamide] | < 500
N#Cc1c(-c2ccc(S(N)(=O)=O)cn2)n(C2CCC2)c2cc(C3CC3)ccc12 [compound 90, 6-(3-cyano-1-cyclobutyl-6-cyclopropyl-1H-indol-2-yl)pyridine-3-sulfonamide] | 2000 to 5000
N#Cc1c(-c2ncc(S(=O)(=O)NC(CF)CF)cn2)n(C2CCC2)c2cc(CC(F)F)ccc12 [compound 591, 2-[3-cyano-1-cyclobutyl-6-(2,2-difluoroethyl)-1H-indol-2-yl]-N-(1,3-difluoropropan-2-yl)pyrimidine-5-sulfonamide] | < 500
Cc1cc2c(cc1F)c(C#N)c(-c1ncc(S(=O)(=O)N[C@@H](C)C(F)(F)F)cn1)n2C1CCCCC1 [compound 679, 2-(3-cyano-1-cyclohexyl-5-fluoro-6-methyl-1H-indol-2-yl)-N-[(2S)-1,1,1-trifluoropropan-2-yl]pyrimidine-5-sulfonamide] | < 500
Cc1cc2c(cc1F)c(C(N)=O)c(-c1ncc(S(=O)(=O)N[C@@H](C)C(F)(F)F)cn1)n2C1CCCCC1 [compound 707, 1-cyclohexyl-5-fluoro-6-methyl-2-(5-{[(2S)-1,1,1-trifluoropropan-2-yl]sulfamoyl}pyrimidin-2-yl)-1H-indole-3-carboxamide] | < 500
CNC(=O)c1c(-c2ccc(S(=O)(=O)N[C@@H](C)C(F)(F)F)cn2)n(C2CCCC2)c2cc(C)c(F)cc12 [compound 761, (S)-1-cyclopentyl-5-fluoro-N,6-dimethyl-2-(5-(N-(1,1,1-trifluoropropan-2-yl)sulfamoyl)pyridin-2-yl)-1H-indole-3-carboxamide] | < 500

Reference: patent US8735414B2 (priority 2009, dated 2014)
